Read-outs that look alike come from different tables or passages of the source.
What was measured:
[1] = rat, in vivo; cited from earlier work
[2] = rat, in vivo
Method: (§1) Male Sprague Dawley rats weighing approximately 250 g with free access to water were fasted overnight. These rats were anesthetized with 40 mg/kg pentobarbital via jugular vein catheter. The small intestine was exposed by a ventral midline incision. A small incision was made into the duodenum and a #9el capsule was inserted into the lumen of the small intestine. The duodenum and the midline incisions were sutured closed. The rats regained consciousness in 30-90 minutes. Blood samples were taken from the jugular vein catheter at 0, 15, 30 and 60 minutes and 2, 3, 4 and 6 hours. Food was returned at 1 hour post surgery. Blood samples were collected in heparinized tubes and subsequently centrifuged. The plasma was stored at −20 C in heparinized tubes. The rats regained consciousness in 30-90 minutes. After the 6 hr blood sample, the rat was euthanized and a necropsy was performed to determine accuracy and integrity of the surgery. The duodenum was examined for blockage, leakage and any evidence of inflammation or irritation at the site of the capsule implantation.

[3] = Rat intraduodenal capsule model, % bioavailability; details: for Drug plus enhancer % BA: 4:1 (enhancer:drug), ceftriaxone/carrageenan complex+Laureth-12, daptomycin carrageenan complex+Ceteth-15, CMPD 1+Ceteth-15, cidofovir, meropenem, caspofungin+Ceteth-12; for bioavailability: male, Sprague Dawley, rat, plasma
Method: as §1

[4] = without any absorption enhancer; cited from earlier work
[5] = Rat intraduodenal capsule model, Cmax with different enhancers (Example 6); details: ID in rats, Cmax normalized to 40 mg/Kg
Method: Male Sprague Dawley rats weighing approximately 250 g with free access to water were fasted overnight. These rats were anesthetized with 40 mg/kg pentobarbital via jugular vein catheter. The small intestine was exposed by a ventral midline incision. A small incision was made into the duodenum and a #9el capsule was inserted into the lumen of the small intestine. The duodenum and the midline incisions were sutured closed. The rats regained consciousness in 30-90 minutes. Blood samples were taken from the jugular vein catheter at 0, 15, 30 and 60 minutes and 2, 3, 4 and 6 hours. Food was returned at 1 hour post surgery. Blood samples were collected in heparinized tubes and subsequently centrifuged. The plasma was stored at −20 C in heparinized tubes. […] After the 6 hr blood sample, the rat was euthanized and a necropsy was performed to determine accuracy and integrity of the surgery. The duodenum was examined for blockage, leakage and any evidence of inflammation or irritation at the site of the capsule implantation.
In each instance, the compositions were administered ID in 3 rats, unless otherwise indicated.

Drug plus enhancer % BA ([3]; ID, rats)	bioavailability [3] [%]	% bioavailability [2]	Compound	further results
			CCCCCCCCCC(=O)N[C@@H](Cc1c[nH]c2ccccc12)C(=O)N[C@H](CC(N)=O)C(=O)N[C@@H](CC(=O)O)C(=O)N[C@@H]1C(=O)NCC(=O)N[C@@H](CCCN)C(=O)N[C@@H](CC(=O)O)C(=O)N[C@H](C)C(=O)N[C@@H](CC(=O)O)C(=O)NCC(=O)N[C@H](CO)C(=O)N[C@@H]([C@H](C)CC(=O)O)C(=O)N[C@@H](CC(=O)c2ccccc2N)C(=O)O[C@@H]1C [Daptomycin, daptomycin, reference compound]	oral bioavailability of drug only (footnote) [1]: poor oral bioavailability; Drug plus enhancer % BA [2]: 44^2%
44%	2		Nc1ccn(C[C@@H](CO)OCP(=O)(O)O)c(=O)n1 [Cidofovir, cidofovir]	
28%	1		C[C@@H](O)[C@H]1C(=O)N2C(C(=O)O)=C(S[C@@H]3CN[C@H](C(=O)N(C)C)C3)[C@H](C)[C@H]12 [Meropenem, meropenem]	
83^2%			CO/N=C(\C(=O)N[C@@H]1C(=O)N2C(C(=O)O)=C(CSc3nc(=O)c(=O)[nH]n3C)CS[C@H]12)c1csc(N)n1 [Ceftriaxone, ceftriaxone]	oral bioavailability [4]: 0-5%; Drug only % BA ([3]; without POE alkyl ether enhancer, ID, rats): 2%
30%			CN(/N=C/C1=C(C(=O)O)N2C(=O)C(NC(=O)/C(=N\OCF)c3nsc(N)n3)[C@H]2SC1)C(=N)N1CCNCC1 (stereo partly shown) [CMPD 1, 7-(((5-amino-1,2,4-thiadiazol-3-yl)-(Z)-(fluoromethoxyimino)acetyl)amino)-3(E)-((imino-1-piperazinylmethyl)-methylhydrazono)methyl-3-cephem-4-carboxylic acid]	Cmax Mean (±SD) ([5]; enhancer Capmul C10, enhancer:drug 4:1): 7 (7) μg/mL; Cmax Mean (±SD) ([5]; enhancer Gelmul 90, enhancer:drug 4:1): 13 (8) μg/mL; Cmax Mean (±SD) ([5]; enhancer Laureth-12, enhancer:drug 4:1): 22 (4) μg/mL; Cmax Mean (±SD) ([5]; enhancer Sodium Laurate, enhancer:drug 4:1): 7 (1) μg/mL
		10 (4) %	Laureth-23	
		60 (19) %	Laureth-9	
		7 (5) %	Beheneth-20	

Compound	Drug plus enhancer % BA ([3]; ID, rats)	bioavailability [3] [%]	% bioavailability [2]	further results
CC[C@H](C)C[C@H](C)CCCCCCCCC(=O)N[C@H]1C[C@@H](O)[C@@H](NCCN)NC(=O)[C@@H]2[C@@H](O)CCN2C(=O)[C@H]([C@H](O)CCN)NC(=O)[C@H]([C@H](O)[C@@H](O)c2ccc(O)cc2)NC(=O)[C@@H]2C[C@@H](O)CN2C(=O)[C@H]([C@@H](C)O)NC1=O [Caspofungin, caspofungin]	<5%	< 1		
